Measured values published in publication PMC4718634, “Murine GPRC6A Mediates Cellular Responses to L-Amino Acids, but Not Osteocalcin Variants” (PLoS ONE, 2016).
“Also recorded” adds a separate entry of the source. Bridge positions count the residues as written; N and C are the ends. Ends that are not written are not given here.

Tests used:
[1] = tested on: GPRC6A; settings: HEK293, mouse GPRC6A with human OCN; ref [11]; cited from earlier work
Source text: Additional interest in GPRC6A has emerged due to several studies reporting that it mediates the metabolic and endocrine effects of the de-carboxylated form of the osteoblast-derived peptide, osteocalcin (OCN).

[2] = tested on: INS-1(832) cells; assay: Label-free cell impedance, INS-1(832) cells; format: cell-based, rat; settings: Gprc6a-negative, EBSS, 2.8 mM glucose, Fig 7, two-way ANOVA, *P < 0.05, **P < 0.01 vs Vehicle
Protocol: For INS-1 cells, 100 μl of medium (RPMI 1640 no glucose, 10% FBS, 55 μM β-mercaptoethanol, 1 mM sodium pyruvate, 10 mM HEPES, 100 U/ml penicillin, 100 μg/ml streptomycin, 11.1 mM glucose) was added per well to an E-plate 96 and a background reading taken. Cells were seeded at 2 x 10^4 / well and the plates incubated in the instrument for 48 h. On the day of the experiment, media was changed to EBSS buffer (180 μl; 2.8 mM glucose, 1.8 mM CaCl2, 5.3 mM KCl, 0.8 mM MgSO4, 117 mM NaCl, 26 mM NaHCO3, 1 mM NaH2PO4). After 2 h incubation, cells were stimulated with 20 μl test compound (10 x final) prepared in the same buffer. Data capture and analysis were as for HEK293 cells.

[3] = tested on: GLUTag cells; assay: GLP-1 release from GLUTag cells; format: cell-based, murine; settings: 0.01–10 ng/ml; with or without cell washing; 2 h; Fig 6A; listed as Human synthetic OCN
Protocol: Intestinal L-cell model GLUTag cells were seeded in 24-well plates coated with Matrigel and incubated for 6 days in DMEM with 10% FBS, 100 U/ml penicillin, 100 μg/ml streptomycin at 37°C in 5% CO2 and grown for 4–5 days. Where indicated, cells were washed (1 or 2 x 1h) with Krebs-HEPES buffer (20 mM HEPES, 118 mM NaCl, 4.7 mM KCl, 1.2 mM MgSO4, 5 mM NaHCO3, 1.2 mM KH2PO4, 2.5 mM CaCl2, 5.5 mM glucose, 0.2% BSA (w/v), pH 7.2) containing vildagliptin (300 μM) prior to addition of test compounds in the same buffer. After 2 h incubation at 37°C in 5% CO2, the supernatant was recovered and centrifuged at 500 rpm for 5 min. Where used, NPS-2143 pre-treatment was for 30 min.
GLP-1 content in the cell supernatant was measured by ELISA (EGLP-35K, Millipore), according to manufacturer’s instructions after overnight incubation of 15 μl supernatant in 100 μl Krebs-HEPES buffer at 4°C. After 5 x washes, 200 μl of detection conjugate was added and incubated for 2 h at RT. After 3 x washes the reaction was developed with 200 μl of diluted substrate (1:200) for 20 min and terminated by addition of 50 μl stop solution. After 5 min, fluorescence was then measured using 355 nm excitation and 460 nm emission, transforming the obtained signal into pmol GLP-1/well/ml and corrected for GLUTag cell protein content as determined using the method of Bradford (1976).
(§1) Concentration-response data were analysed using a three or four parameter logistic function (Motulsky & Christopoulos, 2004) to generate estimates of agonist potency (LogEC50). Data for all HEK293 assays represent the mean ± SEM of at least three independent experiments (except cell impedance, n = 2). For GLP-1 release, the data represent mean ± SEM of three to five independent experiments (except for OCN, wash; n = 2). For insulin release assays, data represent the mean ± SEM of three independent experiments (except for islet studies; n = 2). Insulin release data were normalised to the response to vehicle in either low or high [glucose]. Statistical analysis for GLP-1 release data were performed by one-way ANOVA, followed by Sidak’s multiple comparisons test (treating wash / no wash datasets separately). Statistical analyses for insulin release data were performed by two-way ANOVA (with [glucose] and drug treatment as group variables), followed by Sidak’s multiple comparisons test. Where only high [glucose] groups were evaluated, statistical analysis was by one-way ANOVA followed by Sidak’s multiple comparisons test.

[4] = target: T1, mGPRC6A (mouse GPRC6A) (Mus musculus, UniProt Q8K4Z6); assay: Ca^2+i mobilisation, FlpIn-TREx-HEK293-mGPRC6A cells; format: cell-based; settings: for activity in calcium mobilisation assays: with co-expressed Gαq or GαqG66D
T1 sequence (Q8K4Z6 21-928): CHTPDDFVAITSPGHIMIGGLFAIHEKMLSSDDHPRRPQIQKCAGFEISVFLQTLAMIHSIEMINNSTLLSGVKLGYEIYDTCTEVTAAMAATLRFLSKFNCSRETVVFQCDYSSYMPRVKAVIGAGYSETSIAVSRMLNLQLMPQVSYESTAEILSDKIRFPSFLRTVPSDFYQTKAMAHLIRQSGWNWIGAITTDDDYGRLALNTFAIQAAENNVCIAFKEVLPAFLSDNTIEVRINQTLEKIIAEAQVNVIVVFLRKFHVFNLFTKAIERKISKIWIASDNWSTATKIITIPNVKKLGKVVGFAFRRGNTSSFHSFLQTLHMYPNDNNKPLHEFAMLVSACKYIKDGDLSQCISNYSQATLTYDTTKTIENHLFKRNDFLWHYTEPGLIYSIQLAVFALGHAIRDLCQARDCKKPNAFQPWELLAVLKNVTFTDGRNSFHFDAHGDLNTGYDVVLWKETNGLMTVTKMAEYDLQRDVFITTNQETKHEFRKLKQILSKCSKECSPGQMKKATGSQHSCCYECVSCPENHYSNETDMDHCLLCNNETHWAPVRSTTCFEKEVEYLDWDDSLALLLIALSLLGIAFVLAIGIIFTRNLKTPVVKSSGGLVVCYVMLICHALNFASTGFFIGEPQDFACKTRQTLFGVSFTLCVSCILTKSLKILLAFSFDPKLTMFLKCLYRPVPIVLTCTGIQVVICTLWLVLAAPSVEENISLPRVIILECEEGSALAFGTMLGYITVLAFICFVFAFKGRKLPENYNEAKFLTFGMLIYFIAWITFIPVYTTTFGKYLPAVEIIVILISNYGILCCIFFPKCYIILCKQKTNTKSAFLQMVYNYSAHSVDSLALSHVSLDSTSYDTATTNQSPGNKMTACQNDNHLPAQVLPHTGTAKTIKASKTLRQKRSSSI
Protocol: pcDNA 5/FRT/TO constructs were isogenically integrated into a FlpIn-TREx-HEK293 cell line (Life Technologies). FlpIn-TREx-HEK293-mGPRC6A and FlpIn-TREx-HEK293-hGPRC6A cells were then selected using 600 μg/ml hygromycin and 5 μg/ml blasticidin and grown in culture medium consisting of Dulbecco’s Modified Eagle Medium (DMEM), supplemented with 10% (v/v) foetal bovine serum (FBS) at 37°C in 5% CO2 and were sub-cultured in a 1:3 ratio every 3–4 days. Cells were cultured overnight in the presence of 1 μg/ml tetracycline to induce GPRC6A expression. […] 48 h after transfection, cells were selected using 3 μg/ml puromycin and grown as above.
FlpIn-TREx-HEK293-mGPRC6A cells were seeded into T75 flasks at 70% confluency. Cells were transfected with 15μg of plasmid DNA (Gαq or GαqG66D) with Lipofectamine LTX according to manufacturer's instructions, then incubated for 24h at 37°C in 5% CO2. Cells were plated into 96-well plates (10^5 cells/well) and equilibrated at 37°C in 5% CO2 for 4-6h to adhere, whereupon cells were serum starved overnight at 37°C in 5% CO2. For the assay, cells were washed twice in Ca^2+ assay buffer (150 mM NaCl, 2.6 mM KCl, 1.2 mM MgCl2, 10 mM dextrose, 10 mM HEPES, 2.2 mM CaCl2, 0.5% (w/v) BSA and 4 mM probenecid; pH 7.4). Buffer was then replaced with Ca^2+ assay buffer containing 1μM Fluo-4-AM and incubated for 1h at 37°C in 5% CO2. Cells were washed twice more and replaced with Ca^2+ assay buffer at 37°C. Serial dilutions of test agonists were added by injection in a Flexstation™ (Molecular Devices) and fluorescence was measured at 485nm excitation and 520nm emission wavelengths. Agonist responses were normalised to the peak of response to 100 μM ATP.
as §1, with “Data” for “Concentration-response data were analysed using a three or four parameter logistic function (Motulsky & Christopoulos, 2004) to generate estimates of agonist potency (LogEC50). Data”

[5] = tested on: GPRC6A; settings: ref [6] (supplement list); cited from earlier work
Source text: (§2) Supplement pone.0146846.s004.docx, table 1 | column: Functional assay

[6] = tested on: 22RV1 / PC-3; settings: endogenous; ref [9] (supplement list); cited from earlier work
Source text: as §2

[7] = tested on: mC6A; settings: ref [10] (supplement list); cited from earlier work
Source text: as §2

Compound: human OCN: in b69: synthetic human OCN of Fig 7; in b64: human OCN of ref 11 (YLYQWLGAPVPYPDPLEPRREVCELNPDCDELADHIGFQEAYRRFYGPV; disulfide 23-29 (inferred); not fully specified; printed as YLYQWLGAPVPYPDPLEPRREVCELNPDCDELADHIGFQEAYRRFYGPV-NH2/-COOH; ends not checked; UniProt P02818 52-100, looked up)
- OCN concentration stimulating cAMP accumulation [1]: 60 ng/mL
- change in cell impedance (cell index) [2]: significant, concentration-dependent activity

Compound: YLYQWLGAPVPYPDPLEPRREVCELNPDCDELADHIGFQEAYRRFYGPV-NH2/-COOH (disulfide) [human synthetic OCN, synthetic de-carboxylated human osteocalcin, Federation Bioscience]
- change in cell impedance (cell index) ([2]; listed as synthetic human OCN): significant changes in cell impedance; also recorded: Concentration-dependent increases in cell index
- GLP-1 release, OCN [3]: did not significantly modulate GLP-1 release

Compound: NC(=O)CC[C@H](N)C(=O)O [L-glutamine]
- EC50 [4]: > 1 mM
- activity in calcium mobilisation assays [4]: little or no activity

Compound: N[C@@H](Cc1c[nH]cn1)C(=O)O [L-histidine]
- EC50 [4]: > 1 mM
- activity in calcium mobilisation assays [4]: little or no activity

Compound: [Ca+2].[Cl-].[Cl-] [CaCl2]
- SRE-reporter gene response [5]: pERK1/2 – response to Ca^2+, Mg^2+, Gd^3+, Al^3+, NPS R568 SRE-reporter gene – response to CaCl2, SrCl2, MgCl2, GdCl3 and OCN

Compound: [Cl-].[Cl-].[Mg+2] [MgCl2]
- SRE-reporter gene response [5]: pERK1/2 – response to Ca^2+, Mg^2+, Gd^3+, Al^3+, NPS R568 SRE-reporter gene – response to CaCl2, SrCl2, MgCl2, GdCl3 and OCN

Compound: [Cl][Gd]([Cl])[Cl] [GdCl3]
- SRE-reporter gene response [5]: pERK1/2 – response to Ca^2+, Mg^2+, Gd^3+, Al^3+, NPS R568 SRE-reporter gene – response to CaCl2, SrCl2, MgCl2, GdCl3 and OCN

Compound: CC(C)[C@H](N)C(=O)O [L-valine]
- EC50 [4]: > 1 mM
- activity in calcium mobilisation assays [4]: little or no activity

Compound: [Cl-].[Cl-].[Sr+2] [SrCl2]
- SRE-reporter gene response [5]: pERK1/2 – response to Ca^2+, Mg^2+, Gd^3+, Al^3+, NPS R568 SRE-reporter gene – response to CaCl2, SrCl2, MgCl2, GdCl3 and OCN

Compound: mouse OCN: in b69: synthetic mouse OCN of Fig 7 (GSPEFYLGASVPSPDPLEPTREQCELNPACDELSDQYGLKTAYKRIYGITI; ends and bridges not checked; cysteine pairing not given here)
- change in cell impedance (cell index) [2]: significant, concentration-dependent activity

Compound: COc1cccc([C@@H](C)NCCCc2ccccc2Cl)c1 [NPS R568]
- pERK1/2 response [5]: pERK1/2 – response to Ca^2+, Mg^2+, Gd^3+, Al^3+, NPS R568 SRE-reporter gene – response to CaCl2, SrCl2, MgCl2, GdCl3 and OCN

Compound: C[C@]1(O)CC[C@H]2[C@@H]3CCC4=CC(=O)CCC4=C3C=C[C@@]21C [R1881]
- PSA, Runx2 expression response [6]: pERK1/2 – response to Ca^2+, ZnCl2, OCN, Arginine, Testosterone-BSA Proliferation – response to Ca^2+, OCN PSA, Runx2 expression – response to OCN, Arg, R1881 Chemotaxis (22RV1) – response to Ca^2+, OCN
- SRE-reporter gene response [7]: pERK1/2 – response to Testosterone-BSA, R1881 SRE-reporter gene – response to R1881, Ca^2+
- pERK1/2 response [7]: pERK1/2 – response to Testosterone-BSA, R1881 SRE-reporter gene – response to R1881, Ca^2+
